From US20010009912A1, “NEW DERIVATIVES OF PYRIDIL PIPERAZINE OR PYRIDAZINYL PIPERAZYL, PROCESS FOR PRODUCTION THEREOF AND MEDICAMENTS CONTAINING THESE COMPOUNDS” (priority 1995, published 2001)

Biological target: isolated activated GpIIb/IIIa receptor (Homo sapiens, UniProt P05106+P08514)
Assay: GpIIb/IIIa-Fibrinogen-ELISA (inhibition of fibrinogen binding to coated receptor)
Details: inhibition of fibrinogen-GpIIb/IIIa interaction, O.D. at 405 nm
Procedure: Microtitre plates are coated overnight with 2 μg/ml isolated activated GpIIb/IIIa receptor. After removing the unbound receptor by several washing steps, the surface of the plates is blocked with 1% casein and washed again. The test substance is added in the required concentrations and the plates are incubated for 10 minutes while shaking in a linear shaker. The natural ligand of the gpIIb/IIIa receptor, fibrinogen, is added. After 1 hour of incubation the unbound fibrinogen is removed by several washing steps and bound fibrinogen is detected by a peroxidase-conjugated anti-fibrinogen monoclonal antibody by measuring the O.D. at 405 nm in an ELISA-reader. Inhibition of fibrinogen-GpIIb/IIIa interaction results in a low O.D. An IC50 is calculated in relation to a concentration-effect curve.
The GpIIb/IIIa-Fibrinogen-ELISA is a modification of the assays described in the following literature:
Nachman, R. L. & Leung, L. L. K. (1982): Complex formation of platelet membrane glycoproteins IIb and IIIa with fibrinogen. J. Clin. Invest. 69:263-269. Wright, P. S. et al. (1993): An echistatin C-terminal peptide activated GpIIbIIIa binding to fibrinogen, fibronectin, vitronectin and collagen type I and type IV. Biochem. J. 293:263-276.

Chain of isolated activated GpIIb/IIIa receptor (P08514 32-887 limits assumed): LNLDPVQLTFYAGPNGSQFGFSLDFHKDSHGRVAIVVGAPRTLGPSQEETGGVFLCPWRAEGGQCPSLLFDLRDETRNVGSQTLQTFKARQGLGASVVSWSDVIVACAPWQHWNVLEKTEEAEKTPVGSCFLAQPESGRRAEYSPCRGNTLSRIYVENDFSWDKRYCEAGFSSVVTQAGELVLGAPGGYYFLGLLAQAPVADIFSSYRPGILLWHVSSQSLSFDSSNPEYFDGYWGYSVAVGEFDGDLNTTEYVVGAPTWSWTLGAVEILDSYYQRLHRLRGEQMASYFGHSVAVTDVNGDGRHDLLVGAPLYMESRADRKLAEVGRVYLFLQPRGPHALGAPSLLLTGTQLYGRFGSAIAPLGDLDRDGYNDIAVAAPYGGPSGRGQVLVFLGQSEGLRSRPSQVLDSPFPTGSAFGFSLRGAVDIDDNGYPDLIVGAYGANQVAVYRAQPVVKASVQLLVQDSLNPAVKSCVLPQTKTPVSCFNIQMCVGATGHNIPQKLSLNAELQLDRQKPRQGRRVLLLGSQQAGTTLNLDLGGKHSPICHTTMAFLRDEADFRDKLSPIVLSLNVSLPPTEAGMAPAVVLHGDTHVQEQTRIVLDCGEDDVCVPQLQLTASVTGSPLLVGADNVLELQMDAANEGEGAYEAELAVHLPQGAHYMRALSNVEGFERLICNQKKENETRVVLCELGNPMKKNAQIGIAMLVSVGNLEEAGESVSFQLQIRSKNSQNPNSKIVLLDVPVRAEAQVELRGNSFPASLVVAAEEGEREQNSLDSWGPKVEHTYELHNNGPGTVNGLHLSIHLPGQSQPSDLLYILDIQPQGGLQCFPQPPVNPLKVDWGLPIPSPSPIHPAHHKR
Chain of isolated activated GpIIb/IIIa receptor (P08514 891-1039 partner limits assumed): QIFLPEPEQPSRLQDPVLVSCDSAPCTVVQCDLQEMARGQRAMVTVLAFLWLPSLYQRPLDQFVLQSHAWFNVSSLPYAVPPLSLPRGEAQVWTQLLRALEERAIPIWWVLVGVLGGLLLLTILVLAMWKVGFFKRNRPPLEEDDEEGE
Chain of isolated activated GpIIb/IIIa receptor (P05106 27-788): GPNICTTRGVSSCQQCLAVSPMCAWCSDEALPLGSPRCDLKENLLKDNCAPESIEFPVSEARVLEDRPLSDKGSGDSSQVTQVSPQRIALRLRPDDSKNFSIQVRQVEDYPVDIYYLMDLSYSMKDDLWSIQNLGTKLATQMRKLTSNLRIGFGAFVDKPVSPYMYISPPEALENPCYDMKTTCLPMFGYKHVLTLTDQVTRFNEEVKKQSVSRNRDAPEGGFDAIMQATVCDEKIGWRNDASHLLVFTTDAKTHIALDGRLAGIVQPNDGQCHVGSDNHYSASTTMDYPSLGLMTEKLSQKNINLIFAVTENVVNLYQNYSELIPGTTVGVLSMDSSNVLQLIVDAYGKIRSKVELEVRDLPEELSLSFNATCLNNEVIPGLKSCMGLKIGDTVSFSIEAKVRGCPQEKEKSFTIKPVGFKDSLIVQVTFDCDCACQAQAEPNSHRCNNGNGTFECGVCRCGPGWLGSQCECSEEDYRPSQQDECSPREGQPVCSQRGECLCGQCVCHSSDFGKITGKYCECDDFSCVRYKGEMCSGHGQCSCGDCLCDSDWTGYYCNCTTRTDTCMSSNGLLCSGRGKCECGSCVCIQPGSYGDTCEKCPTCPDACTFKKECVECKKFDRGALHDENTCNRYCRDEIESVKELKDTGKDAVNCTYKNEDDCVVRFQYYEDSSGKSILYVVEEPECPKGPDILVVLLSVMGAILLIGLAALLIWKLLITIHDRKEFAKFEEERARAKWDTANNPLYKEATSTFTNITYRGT

| IC50 | SMILES |
| --- | --- |
| 100 nM | O=C(O)CC1CCC(CCN2CCN(c3ccncc3)CC2)CC1 (centres unmarked) [Example 4, {4-[2-(4-Pyridin-4-yl-piperazin-1-yl)-ethyl]-cyclohexyl} -acetic acid] |
| 2500 nM | O=C(O)CC1(O)CCC(N2CCN(c3ccncc3)CC2)CC1 (stereo not drawn) [cis-1-hydroxy-4-[4-(4-pyridyl)-piperazin-1-yl] -acetic acid] |
